Test results from ChEMBL document CHEMBL5365481, “Design, Synthesis, and Activity Evaluation of Novel Dual-Target Inhibitors with Antifungal and Immunoregulatory Properties” (J Med Chem, 2023).
Values after ≈ are worked out from the molar mass of the structure shown.

Experiments:
Type in all cases: functional
Candida albicans [1] = assay: Antifungal activity against Candida albicans ATCC SC5314 assessed as inhibition of fungal growth incubated for 72 hrs by CLSI based liquid medium microdilution method
Cryptococcus neoformans = assay: Antifungal activity against Cryptococcus neoformans ZKCC 2209 assessed as inhibition of fungal growth incubated for 72 hrs by CLSI based liquid medium microdilution method
Pichia kudriavzevii = assay: Antifungal activity against Candida krusei ATCC 6258 assessed as inhibition of fungal growth incubated for 72 hrs by CLSI based liquid medium microdilution method
Candida tropicalis = assay: Antifungal activity against Candida tropicalis ATCC 1369 assessed as inhibition of fungal growth incubated for 72 hrs by CLSI based liquid medium microdilution method
Aspergillus fumigatus = assay: Antifungal activity against Aspergillus fumigatus KM8001 assessed as inhibition of fungal growth incubated for 72 hrs by CLSI based liquid medium microdilution method
Candida albicans [2] = assay: Antifungal activity against fluconazole-resistant Candida albicans CaR assessed as inhibition of fungal growth incubated for 72 hrs by CLSI based liquid medium microdilution method
Candida albicans [3] = assay: Antifungal activity against fluconazole-resistant Candida albicans 17# assessed as inhibition of fungal growth incubated for 72 hrs by CLSI based liquid medium microdilution method
Candida albicans [4] = assay: Antifungal activity against fluconazole-resistant Candida albicans 632 assessed as inhibition of fungal growth incubated for 72 hrs by CLSI based liquid medium microdilution method
Candida albicans [5] = assay: Antifungal activity against fluconazole-resistant Candida albicans 901 assessed as inhibition of fungal growth incubated for 72 hrs by CLSI based liquid medium microdilution method
Candida albicans [6] = assay: Antifungal activity against fluconazole-resistant Candida albicans 904 assessed as inhibition of fungal growth incubated for 72 hrs by CLSI based liquid medium microdilution method

| MIC50 (Candida albicans [1]) [µg/mL] | MIC50 (Cryptococcus neoformans) [µg/mL] | MIC50 (Pichia kudriavzevii) [µg/mL] | MIC50 (Candida tropicalis) [µg/mL] | MIC50 (Aspergillus fumigatus) [µg/mL] | SMILES | MIC50 (Candida albicans [2]) [µg/mL] | MIC50 (Candida albicans [3]) [µg/mL] | MIC50 (Candida albicans [4]) [µg/mL] | MIC50 (Candida albicans [5]) [µg/mL] | MIC50 (Candida albicans [6]) [µg/mL] |
| --- | --- | --- | --- | --- | --- | --- | --- | --- | --- | --- |
| 4 (≈ 10.8 µM) | 2 (≈ 5.41 µM) | 2 (≈ 5.41 µM) | 4 (≈ 10.8 µM) | 4 (≈ 10.8 µM) | O=C(NC1CCCc2ccccc21)c1nc(-n2ccnc2)c2ccccc2n1 (stereo not given) |  |  |  |  |  |
| 0.5 (≈ 1.4 µM) | 0.5 (≈ 1.4 µM) | 1 (≈ 2.79 µM) | 0.5 (≈ 1.4 µM) | 2 (≈ 5.58 µM) | CC(=O)c1ccc(NC(=O)c2nc(-n3cncn3)c3ccccc3n2)cc1 |  |  |  |  |  |
| 1 (≈ 2.54 µM) | 2 (≈ 5.07 µM) | 2 (≈ 5.07 µM) | 2 (≈ 5.07 µM) | 4 (≈ 10.1 µM) | CS(=O)(=O)c1ccc(NC(=O)c2nc(-n3cncn3)c3ccccc3n2)cc1 |  |  |  |  |  |
| 2 (≈ 4.38 µM) | 1 (≈ 2.19 µM) | 2 (≈ 4.38 µM) | 1 (≈ 2.19 µM) | 4 (≈ 8.76 µM) | COc1ccc(C(=O)N2CCC(NC(=O)c3nc(-n4ccnc4)c4ccccc4n3)CC2)cc1 |  |  |  |  |  |
| 1 (≈ 2.34 µM) | 2 (≈ 4.68 µM) | 1 (≈ 2.34 µM) | 1 (≈ 2.34 µM) | 4 (≈ 9.36 µM) | O=C(NC1CCN(C(=O)c2ccccc2)CC1)c1nc(-n2cncn2)c2ccccc2n1 |  |  |  |  |  |
| 1 (≈ 2.74 µM) | 1 (≈ 2.74 µM) | 0.5 (≈ 1.37 µM) | 1 (≈ 2.74 µM) | 2 (≈ 5.48 µM) | O=C(NCc1ccccc1)c1nc(-n2cncn2)c2cc(Cl)ccc2n1 |  |  |  |  |  |
| 2 (≈ 4.27 µM) | 2 (≈ 4.27 µM) | 1 (≈ 2.13 µM) | 0.5 (≈ 1.07 µM) | 4 (≈ 8.54 µM) | CC(=O)c1ccc(C(=O)N2CCC(NC(=O)c3nc(-n4ccnc4)c4ccccc4n3)CC2)cc1 |  |  |  |  |  |

Continued, compound first:

| SMILES | MIC50 (Candida albicans [1]) [µg/mL] | MIC50 (Cryptococcus neoformans) [µg/mL] | MIC50 (Pichia kudriavzevii) [µg/mL] | MIC50 (Candida tropicalis) [µg/mL] | MIC50 (Aspergillus fumigatus) [µg/mL] | MIC50 (Candida albicans [2]) [µg/mL] | MIC50 (Candida albicans [3]) [µg/mL] | MIC50 (Candida albicans [4]) [µg/mL] | MIC50 (Candida albicans [5]) [µg/mL] | MIC50 (Candida albicans [6]) [µg/mL] |
| --- | --- | --- | --- | --- | --- | --- | --- | --- | --- | --- |
| O=C(NCc1ccccc1)c1nc(-n2ccnc2)c2ccccc2n1 | 2 (≈ 6.07 µM) | 4 (≈ 12.1 µM) | 1 (≈ 3.04 µM) | 2 (≈ 6.07 µM) | > 8 |  |  |  |  |  |
| CS(=O)(=O)c1ccc(NC(=O)c2nc(-n3cncn3)c3cc(Cl)ccc3n2)cc1 | 0.5 (≈ 1.17 µM) | 0.5 (≈ 1.17 µM) | 1 (≈ 2.33 µM) | 1 (≈ 2.33 µM) | 2 (≈ 4.66 µM) |  |  |  |  |  |
| CS(=O)(=O)c1ccc(NC(=O)c2nc(-n3ccnc3)c3cc(Cl)ccc3n2)cc1 | 1 (≈ 2.34 µM) | 0.5 (≈ 1.17 µM) | 2 (≈ 4.67 µM) | 2 (≈ 4.67 µM) | 4 (≈ 9.35 µM) |  |  |  |  |  |
| CC(=O)N1CCN(c2ccc(OCC3COC(Cn4ccnc4)(c4ccc(Cl)cc4Cl)O3)cc2)CC1 (stereo not given) [KETOCONAZOLE] | 2 (≈ 3.76 µM) | 1 (≈ 1.88 µM) | 1 (≈ 1.88 µM) | 0.5 (≈ 0.941 µM) | 4 (≈ 7.53 µM) | 4 (≈ 7.53 µM) | 2 (≈ 3.76 µM) | > 8 | 4 (≈ 7.53 µM) | > 8 |
| CC(=O)c1ccc(NC(=O)c2nc(-n3cncn3)c3cc(Cl)ccc3n2)cc1 | 0.5 (≈ 1.27 µM) | 2 (≈ 5.09 µM) | 1 (≈ 2.55 µM) | 0.5 (≈ 1.27 µM) | 4 (≈ 10.2 µM) |  |  |  |  |  |
